One data set concerns the target T1, TRβ (Homo sapiens, UniProt P10828).
T1 construct: 5 μL of 4×TR beta/alfa-LBD; purchased Invitrogen PV4686
T1 sequence (P10828 217-461 limits assumed): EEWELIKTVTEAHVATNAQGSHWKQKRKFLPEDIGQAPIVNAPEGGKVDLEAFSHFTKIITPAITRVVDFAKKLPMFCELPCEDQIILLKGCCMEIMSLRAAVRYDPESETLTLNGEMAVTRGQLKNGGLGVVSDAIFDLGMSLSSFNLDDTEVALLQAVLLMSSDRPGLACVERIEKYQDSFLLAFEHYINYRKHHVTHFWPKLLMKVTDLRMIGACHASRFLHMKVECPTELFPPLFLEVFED
The experiment in a line: LanthaScreen TR-FRET Thyroid Receptor beta Coactivator Assay (in vitro binding activity). Particulars: TR beta-LBD. Summed up: (§1)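 TR-FRET coactivator recruitment used GST-tagged TRα or TRβ ligand-binding domain with fluorescein-SRC2-2 peptide and Tb anti-GST antibody (0.4 μM and 8 nM in the added mix). Compound was run as 10-point 3-fold dilutions (2% DMSO solution) for 1 h at room temperature in the dark. EC50 came from the 520/495 nm emission ratio.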
(In general: In TR-FRET formats the signal depends on donor and acceptor labels being close together.)

Data set [1] can be described thus: Pharmacokinetic determination in SD rats (i.v. and i.g.). The class given is in vivo. Particulars: for AUC(0-inf) / AUC(0-t) / Cmax / clearance / half-life / Vd: male, Sprague-Dawley (SD), rat, plasma; for Vd: read-out: VSS. The source says: Test purposes: The following method was used to determine the pharmacokinetics of the compound of the present invention.
Test Materials: • Experimental reagents and test samples used: Propranolol (internal standard), methanol, ammonium acetate, K2EDTA (potassium ethylenediaminetetraacetic acid), formic acid, acetonitrile MTBE (methyl tert-butyl ether). KolliphorHS15 (macrogol 12 hydroxystearate), DMSO (dimethyl sulfoxide) are commercially available • SD rats: male, 180-220 g, 7-8 weeks old, purchased from Human Slack Experimental Animal Co., Ltd.
Each test sample prepared was completely dissolved in a mixture of 5% DMSO+5% KolliphorHS 15+90% Saline according solubility property thereof.
Samples were processed by liquid-liquid extraction, chromatographically separated, quantitatively analyzed by multiple reaction ion monitoring (MRM) on a triple quadrupole tandem mass spectrometer, and the concentration of the results was calculated by instrument quantitative software.
30 μL of plasma sample was precisely pipetted, added with 250 μL of internal standard, and vortexed to mix thoroughly. Plasma samples was extracted once with 1 mL of MTBE, centrifuged at 13,000 rpm for 2 min at 4° C. 800 μL of the supernatant was sucked out, evaporated to dryness in a 96-well nitrogen blower, and the residue was reconstituted with 150 μL of methanol/water (v/v=50/50), vortexed to mix, and injected with an injection volume of 8 μL.
LC/MS/MS method was used to determine the content of the test compound in rat plasma after administration of different compounds.
Pharmacokinetic parameters were calculated using a noncompartmental method by WinNonLin 6.1 software.

A further data set concerns the target T2, TRα (Homo sapiens, UniProt P10827).
T2 construct: 5 μL of 4×TR beta/alfa-LBD; purchased Invitrogen PV4687
Put plainly: LanthaScreen TR-FRET Thyroid Receptor alfa Coactivator Assay (in vitro binding activity). Particulars: TR alfa-LBD. Summed up: as §1

T2 sequence (P10827 163-410 isoform P10827-2 limits assumed, other chains not shown): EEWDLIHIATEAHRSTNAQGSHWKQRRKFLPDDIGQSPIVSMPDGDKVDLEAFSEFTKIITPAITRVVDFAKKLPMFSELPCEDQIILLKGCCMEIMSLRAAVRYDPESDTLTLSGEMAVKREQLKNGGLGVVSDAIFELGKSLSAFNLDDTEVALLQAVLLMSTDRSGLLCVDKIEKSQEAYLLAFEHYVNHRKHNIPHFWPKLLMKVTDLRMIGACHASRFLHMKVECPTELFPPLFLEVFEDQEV

By EC50 is commonly meant the concentration at which the effect is half-maximal. A higher EC50 goes with weaker potency. As a reminder, the AUC(0-inf) is the area under the concentration-time curve extrapolated to infinity. One may read the AUC(0-t) as the area under the concentration-time curve up to a stated or last time point. A lower AUC(0-t) goes with less exposure. The Cmax is the peak of the concentration-time curve. As usually defined, the clearance is the volume of plasma or blood freed of the substance per unit of time. What is called half-life is the time needed for the level to fall by half in the phase considered. On TRβ, `O=C1c2ccc(Oc3c(Cl)cc(-n4ncc(=O)[nH]c4=O)cc3Cl)cc2CCN1Cc1cccc(C(F)(F)F)c1` [Example 34, 2-(3,5-dichloro-4-((2-(3-(trifluoromethyl)benzyl)-1-oxo-1,2,3,4-tetrahydroisoquinolin-6-yl)oxy)phenyl)-1,2,4-triazine-3,5(2H,4H)-dione] showed a concentration giving a half-maximal response (EC50) of 0.021 µM. In data set [1] (ig, 5 mg/kg), the F is on record as 111%. In data set [1] (iv, 1 mg/kg), the total exposure AUC(0-inf) was 22400 ng·h/mL, the AUC(0-t) turned out to be 18800 ng·h/mL, the peak concentration (Cmax) amounted to 3020 ng/mL and the clearance came to 0.744 mL/min/kg. In data set [1] (iv, 1 mg/kg), the half-life is 9.87 h and the Vd was 0.531 L/kg. In data set [1] (po, ig, 5 mg/kg), this compound gave an AUC(0-inf) of 124000 ng·h/mL, an AUC(0-t) of 110000 ng·h/mL, a peak concentration (Cmax) of 8460 ng/mL and a half-life of 7.67 h. The same compound returned a concentration for a half-maximal effect (EC50) on TRα above 100 µM.

On to `O=C1c2ccc(Oc3c(Cl)cc(-n4ncc(=O)[nH]c4=O)cc3Cl)cc2CCN1Cc1ccccn1` [Example 46, 2-(3,5-dichloro-4-((1-oxo-2-(pyridin-2-ylmethyl)-1,2,3,4-tetrahydroisoquinolin-6-yl)oxy)phenyl)-1,2,4-triazine-3,5(2H,4H)-dione], for which the half-maximal effective concentration (EC50) on TRβ is 0.035 µM. This compound returned a F in data set [1] (ig, 5 mg/kg) of 126.5%. In data set [1] (iv, 1 mg/kg), this compound yielded an AUC(0-inf) of 10000 ng·h/mL, an AUC(0-t) of 9810 ng·h/mL, a Cmax of 4160 ng/mL and a clearance of 1.66 mL/min/kg. Besides, in data set [1] (iv, 1 mg/kg), the half-life was 4.24 h and the Vd was 0.424 L/kg. In data set [1] (po, ig, 5 mg/kg), this compound showed an AUC(0-inf) of 633000 ng·h/mL, an AUC(0-t) of 61900 ng·h/mL, a Cmax of 6410 ng/mL and a half-life of 5.93 h. The compound also showed an EC50 on TRα above 100 µM.

`O=C1c2ccc(Oc3c(Cl)cc(-n4ncc(=O)[nH]c4=O)cc3Cl)cc2CCN1Cc1ccc(C(F)(F)F)cc1` [Example 29, 2-(3,5-dichloro-4-((1-oxo-2-(4-(trifluoromethyl)benzyl)-1,2,3,4-tetrahydroisoquinolin-6-yl)oxy)phenyl)-1,2,4-triazine-3,5(2H,4H)-dione] displayed an EC50 at TRβ of 0.091 µM. For the same compound, the F in data set [1] (ig, 5 mg/kg) came out at 66.2%. Besides, in data set [1] (iv, 1 mg/kg), the area under the curve AUC(0-inf) is 56000 ng·h/mL, the AUC(0-t) was found to be 48700 ng·h/mL, the maximum concentration (Cmax) came to 4270 ng/mL and the clearance stood at 0.297 mL/min/kg. For the same compound, in data set [1] (iv, 1 mg/kg), the half-life is 8.47 h and the Vd was found to be 0.194 L/kg. Besides, in data set [1] (po, ig, 5 mg/kg), the area under the curve AUC(0-inf) came to 236000 ng·h/mL, the area under the curve AUC(0-t) worked out at 159000 ng·h/mL, the Cmax worked out at 10300 ng/mL and the half-life was 14.1 h. On TRα, the EC50 is above 100 µM.

`O=C1c2ccc(Oc3c(Cl)cc(-n4ncc(=O)[nH]c4=O)cc3Cl)cc2CCN1Cc1ccc(F)cc1` [Example 20, 2-(3,5-dichloro-4-((2-(4-fluorobenzyl)-1-oxo-1,2,3,4-tetrahydroisoquinolin-6-yl)oxy)phenyl)-1,2,4-triazine-3,5(2H,4H)-dione]: a half-maximal response at TRβ (EC50) required 0.012 µM. In addition, the F in data set [1] (ig, 5 mg/kg) was 115.1%. In data set [1] (iv, 1 mg/kg), this compound returned an AUC(0-inf) of 16400 ng·h/mL, an area under the curve AUC(0-t) of 16300 ng·h/mL, a Cmax of 3990 ng/mL and a clearance of 1.01 mL/min/kg. Further, in data set [1] (iv, 1 mg/kg), the half-life is 3.16 h and the Vd amounted to 0.251 L/kg. In data set [1] (po, ig, 5 mg/kg), this compound gave an area under the curve AUC(0-inf) of 94400 ng·h/mL, an AUC(0-t) of 93700 ng·h/mL, a maximum concentration (Cmax) of 10400 ng/mL and a half-life of 3.57 h. The compound further showed a half-maximal effective concentration (EC50) at TRα above 100 µM.

`O=C1c2ccc(Oc3c(Cl)cc(-n4ncc(=O)[nH]c4=O)cc3Cl)cc2CCN1c1ccc(F)cc1` [Example 28] displayed a concentration for a half-maximal effect (EC50) on TRβ of 0.017 µM. The F in data set [1] (ig, 5 mg/kg) was 97.6%. In data set [1] (iv, 1 mg/kg), this compound displayed an AUC(0-inf) of 9640 ng·h/mL, an AUC(0-t) of 8730 ng·h/mL, a Cmax of 8400 ng/mL and a clearance of 1.73 mL/min/kg. Besides, in data set [1] (iv, 1 mg/kg), the half-life was 2.91 h and the Vd was determined as 0.246 L/kg. Besides, in data set [1] (po, ig, 5 mg/kg), the AUC(0-inf) came to 47000 ng·h/mL, the AUC(0-t) came to 47000 ng·h/mL, the concentration peaked (Cmax) at 15500 ng/mL and the half-life was 2.29 h. Moreover, the concentration for a half-maximal effect (EC50) at TRα is above 100 µM.

For the compound `O=C1c2ccc(Oc3c(Cl)cc(-n4ncc(=O)[nH]c4=O)cc3Cl)cc2CCN1c1cccc(F)c1` [Example 42, 2-(3,5-dichloro-4-((2-(3-fluorophenyl)-1-oxo-1,2,3,4-tetrahydroisoquinolin-6-yl)oxy)phenyl)-1,2,4-triazine-3,5(2H,4H)-dione], the EC50 on TRβ came out at 0.016 µM. The compound further had a F in data set [1] (ig, 5 mg/kg) of 134.8%. In data set [1] (iv, 1 mg/kg), this compound returned an AUC(0-inf) of 1960 ng·h/mL, an AUC(0-t) of 1860 ng·h/mL, a maximum concentration (Cmax) of 4340 ng/mL and a clearance of 8.49 mL/min/kg. In addition, in data set [1] (iv, 1 mg/kg), the half-life is 2.97 h and the Vd was 0.658 L/kg. Besides, in data set [1] (po, ig, 5 mg/kg), the total exposure AUC(0-inf) was determined as 13200 ng·h/mL, the AUC(0-t) amounted to 12700 ng·h/mL, the peak level (Cmax) was 7700 ng/mL and the half-life is 2.53 h. At TRα, this compound returned a half-maximal effective concentration (EC50) above 100 µM.

Consider `O=C1c2ccc(Oc3c(Cl)cc(-n4ncc(=O)[nH]c4=O)cc3Cl)cc2CCN1c1cccnc1` [Example 49, 2-(3,5-dichloro-4-((1-oxo-2-(pyridin-3-yl)-1,2,3,4-tetrahydroisoquinolin-6-yl)oxy)phenyl)-1,2,4-triazine-3,5(2H,4H)-dione], for which the 50% effective concentration (EC50) at TRβ turned out to be 0.107 µM. Further, in data set [1] (ig, 5 mg/kg), the F is listed as 138.3%. In addition, in data set [1] (iv, 1 mg/kg), the AUC(0-inf) worked out at 3730 ng·h/mL, the AUC(0-t) stood at 3580 ng·h/mL, the concentration peaked (Cmax) at 5300 ng/mL and the clearance worked out at 4.46 mL/min/kg. Also, in data set [1] (iv, 1 mg/kg), the half-life was 1.14 h and the Vd stood at 0.306 L/kg. In data set [1] (po, ig, 5 mg/kg), this compound gave an area under the curve AUC(0-inf) of 25800 ng·h/mL, an exposure AUC(0-t) of 25300 ng·h/mL, a peak concentration (Cmax) of 9680 ng/mL and a half-life of 3.63 h. The EC50 on TRα was above 100 µM.
